Measured values from patent US8314150B2, “Kinase protein binding inhibitors” (priority 2008, dated 2012).

Assays:
paxillin phosphorylation = assay: Western blotting p-paxillin, Panc-1 cells; format: cell-based, human; conditions: 24 hours
Description: (§1) Cell Viability Assay—The Cells were treated with peptides for 24 hours at different peptide concentrations. The 3-(4,5-dimethylthiazol-2-yl)-5-(3-carboxymethoxyphenyl)-2-(4-sulfophenyl)-2H-tetrazolium compound from Promega Viability kit (Madison, Ill.) was added, and the cells were incubated at 37° C. for 1-2 hours. The optical density on 96-plate was analyzed with a microplate reader at 490 nm to determine cell viability. In addition, cells were stained with trypan blue after 24 hours of treatment with Y15 and the percent of cells that stained positive were determined with a hemacytometer. […] Then 2% SDS was added to the dried plated and OD at 590 nm was measured for detecting cell adhesion. […] Protein concentrations were determined using a Bio-Rad Kit. The boiled samples were loaded on Ready SDS-10% PAGE gels (Bio Rad, Inc) and used for Western blot analysis with the protein-specific antibody. […] Detachment Assay—Cells were plated with and without inhibitors for 24 hours, and detached and attached cells were counted in a hemocytometer. We calculated the percent of detachment by dividing the number of detached cells by the total number of cells. The percent of detached cells was calculated in three independent experiments. […] For each experiment 300 cells per treatment were counted. […]

[1] = Tolerability in nude mice in tumor growth inhibition experiments; format: in vivo
Description: as §1

caspase-3 = assay: Caspase-3 immunohistochemistry of Panc-1 tumors; format: in vivo, mice; conditions: 30 mg/kg, no significant increase
Description: as §1

Miapaca-2 cells = assay: Detachment assay, Miapaca-2; format: cell-based, human
Description: as §1

Panc-1 tumor cells = assay: Panc-1 subcutaneous tumor growth in nude mice; format: in vivo; conditions: 30 mg/kg each, daily intraperitoneal
Description: as §1

[2] = test system: Y397 phosphorylation of FAK; assay: Western blotting with Y397 FAK antibody, BT474 cells; format: cell-based
Description: Cell Viability Assay—The Cells were treated with peptides for 24 hours at different peptide concentrations. The 3-(4,5-dimethylthiazol-2-yl)-5-(3-carboxymethoxyphenyl)-2-(4-sulfophenyl)-2H-tetrazolium compound from Promega Viability kit (Madison, Ill.) was added, and the cells were incubated at 37° C. for 1-2 hours. The optical density on 96-plate was analyzed with a microplate reader at 490 nm to determine cell viability. In addition, cells were stained with trypan blue after 24 hours of treatment with Y15 and the percent of cells that stained positive were determined with a hemacytometer. Cell adhesion assay—The poly-L-Lysine or Collagen (5 μg/ml) coated 96-well plates were blocked with the blocking buffer (medium with 0.5% BSA) for 1 hour at 37 C. The cells were pre-treated with drugs for 3 hours and plated for adhesion at 4×10^5 cells. Cells were incubated at 37 C for 1 hour, fixed in 3.7% formaldehyde, washed in 0.1% BSA in PBS and stained with crystal violet (5 mg/ml in 2% ethanol) for 10 minutes. Then 2% SDS was added to the dried plated and OD at 590 nm was measured for detecting cell adhesion. Western Blotting—Cells or homogenized tumor samples were washed twice with cold 1×PBS and lysed on ice for 30 minutes in a buffer containing: 50 mM Tris-HCl (pH 7.5), 150 mM NaCl, 1% Triton-X, 0.5% NaDOC, 0.1% SDS, 5 mM EDTA, 50 mM NaF, 1 mM NaVO3, 10% glycerol and protease inhibitors: 10 μg/ml leupeptin, 10 μg/ml PMSF and 1 μg/ml aprotinin. The lysates were cleared by centrifugation at 10,000 rpm for 30 minutes at 4° C. Protein concentrations were determined using a Bio-Rad Kit. The boiled samples were loaded on Ready SDS-10% PAGE gels (Bio Rad, Inc) and used for Western blot analysis with the protein-specific antibody. Immunoblots were developed with chemiluminescence Renaissance reagent (NEN Life Science Products, Inc). Immunoprecipitation. Immunoprecipitation was performed according to the standard protocol. In brief, the pre-cleared lysates with equal amount of protein were incubated with 1 μg of primary antibody and 30 μl A/G agarose beads overnight at 4° C. The precipitates were washed with lysis buffer three times and re-suspended in 2× Laemmli buffer. The boiled samples were used for Western blotting, as described above. Detachment Assay—Cells were plated with and without inhibitors for 24 hours, and detached and attached cells were counted in a hemocytometer. We calculated the percent of detachment by dividing the number of detached cells by the total number of cells. The percent of detached cells was calculated in three independent experiments. Apoptosis Assay. Detached cells were collected and fixed in 3.7% formaldehyde in 1×PBS solution for the apoptosis assay. Detection of apoptosis was done with Hoechst 33342 staining. The percent of apoptotic cells was calculated as a ratio of apoptotic detached cells divided by the total number of cells in three independent experiments in several fields with the fluorescent microscope. For each experiment 300 cells per treatment were counted. In vitro Kinase Assay—10 μCi of [γ-^32P]-ATP in a kinase buffer (20 mM HEPES, pH 7.4, 5 mM MgCl2, 5 mM MnCl2, 0.1 mM Na3VO4 with 0.1 μg of purified FAK protein were incubated in a kinase buffer with 10 μCi of [γ-^32P]-ATP. The kinase reaction was performed for 5 minutes at room temperature and stopped by addition of 2× Laemmli buffer. Proteins were separated on a Ready SDS-10% PAGE gel, and the phosphorylated enolase was visualized by autoradiography. KinaseProfiler screening—Kinase specificity screening was performed with KinaseProfiler™ Service (Millipore) available on http://www.millipore.com/drugdiscovery/dd3/KinaseProfiler. The screening was performed with 1 μM Y15, 10 μM ATP and kinase substrates on 9 recombinant kinases according to Millipore protocol. Tumor Growth in Nude Mice—Female nude mice, 6 weeks old, were purchased from Harlan Laboratory. […]

With `Cl.Cl.Cl.Cl.Nc1cc(N)c(N)cc1N` [Y15, 1,2,4,5-benzenetetraamine tetrahydrochloride] the “phosphorylation of FAK downstream substrate paxillin” value (paxillin phosphorylation) was “blocked”, the optimal non-toxic dose ([1]; IP, nude mice) was 30 mg/kg and the “animal weight loss or death” value ([1]; intraperitoneal 30 mg/kg, 5 days/week, 36 days) was “No animal weight loss or death was observed”. The “apoptotic cells in tumors (caspase-3 staining)” value (caspase-3) was 6%, the “dose from which detachment was significant” value (Miapaca-2 cells) was 3 µM and the tumor growth (Panc-1 tumor cells) was “inhibited tumor growth even better than gemcitabine alone”. For the same compound, the “total FAK level” value ([2]; 100 μM) was “down-regulates FAK”, the “treatment time enough to completely block Y397-phosphorylation” value ([2]; 100 μM) was 8 h and the “inhibition of Y397 phosphorylation compared with TAE226” value ([2]; 100 μM dose, 24 hours) was “same inhibition as TAE226”. The “Y397 phosphorylation after 4 hours” value ([2]; 100 μM, 4 hours) was “did not significantly decreased Y397 phosphorylation”, the “Y397 phosphorylation of FAK” value ([2]; 100 μM, 24 hours) was “specifically inhibited Y397 phosphorylation of FAK” and the “dose with high inhibition of Y397 phosphorylation” value ([2]; 24 hours) was 50 µM. For the same compound, the “dose with maximal inhibition of Y397 phosphorylation” value ([2]; 24 hours) was 100 µM.
